From patent publication US7618983B2, “Bicyclic triazole α4 integrin inhibitors” (Janssen Pharmaceutica, N.V., priority 2004, dated 2009) come the findings set out here.

One experiment deals with T1, human α4β7 integrin (Homo sapiens, UniProt P13612+P26010).
T1 construct: expressed in transfected cells; host or cells: K562 cells, stably transfected
T1 sequence (P13612 34-1032): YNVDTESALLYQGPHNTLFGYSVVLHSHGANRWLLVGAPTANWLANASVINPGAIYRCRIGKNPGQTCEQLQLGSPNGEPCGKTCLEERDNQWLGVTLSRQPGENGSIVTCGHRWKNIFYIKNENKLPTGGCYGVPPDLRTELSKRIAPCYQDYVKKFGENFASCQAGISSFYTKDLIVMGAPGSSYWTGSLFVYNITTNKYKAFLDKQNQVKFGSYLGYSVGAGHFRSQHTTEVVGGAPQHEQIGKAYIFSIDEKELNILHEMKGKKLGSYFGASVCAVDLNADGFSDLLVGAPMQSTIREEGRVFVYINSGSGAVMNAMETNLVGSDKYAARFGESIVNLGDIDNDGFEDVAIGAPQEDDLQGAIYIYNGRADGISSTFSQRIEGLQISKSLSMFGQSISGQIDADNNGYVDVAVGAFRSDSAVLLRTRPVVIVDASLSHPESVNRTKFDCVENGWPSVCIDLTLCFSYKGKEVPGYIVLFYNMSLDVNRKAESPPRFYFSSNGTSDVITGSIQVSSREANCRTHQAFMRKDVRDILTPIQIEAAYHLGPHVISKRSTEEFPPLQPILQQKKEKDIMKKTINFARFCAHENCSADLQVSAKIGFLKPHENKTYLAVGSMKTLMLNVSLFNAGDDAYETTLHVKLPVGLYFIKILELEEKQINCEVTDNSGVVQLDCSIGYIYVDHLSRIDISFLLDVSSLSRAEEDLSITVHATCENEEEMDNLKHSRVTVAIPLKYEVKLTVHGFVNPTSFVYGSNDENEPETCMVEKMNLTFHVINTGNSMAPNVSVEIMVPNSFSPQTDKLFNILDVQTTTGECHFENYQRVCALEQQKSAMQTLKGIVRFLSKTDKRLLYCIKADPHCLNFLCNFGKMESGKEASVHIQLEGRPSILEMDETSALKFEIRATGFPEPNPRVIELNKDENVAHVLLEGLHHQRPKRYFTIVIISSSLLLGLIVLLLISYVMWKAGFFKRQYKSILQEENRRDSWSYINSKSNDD
T1 sequence (P26010 20-798): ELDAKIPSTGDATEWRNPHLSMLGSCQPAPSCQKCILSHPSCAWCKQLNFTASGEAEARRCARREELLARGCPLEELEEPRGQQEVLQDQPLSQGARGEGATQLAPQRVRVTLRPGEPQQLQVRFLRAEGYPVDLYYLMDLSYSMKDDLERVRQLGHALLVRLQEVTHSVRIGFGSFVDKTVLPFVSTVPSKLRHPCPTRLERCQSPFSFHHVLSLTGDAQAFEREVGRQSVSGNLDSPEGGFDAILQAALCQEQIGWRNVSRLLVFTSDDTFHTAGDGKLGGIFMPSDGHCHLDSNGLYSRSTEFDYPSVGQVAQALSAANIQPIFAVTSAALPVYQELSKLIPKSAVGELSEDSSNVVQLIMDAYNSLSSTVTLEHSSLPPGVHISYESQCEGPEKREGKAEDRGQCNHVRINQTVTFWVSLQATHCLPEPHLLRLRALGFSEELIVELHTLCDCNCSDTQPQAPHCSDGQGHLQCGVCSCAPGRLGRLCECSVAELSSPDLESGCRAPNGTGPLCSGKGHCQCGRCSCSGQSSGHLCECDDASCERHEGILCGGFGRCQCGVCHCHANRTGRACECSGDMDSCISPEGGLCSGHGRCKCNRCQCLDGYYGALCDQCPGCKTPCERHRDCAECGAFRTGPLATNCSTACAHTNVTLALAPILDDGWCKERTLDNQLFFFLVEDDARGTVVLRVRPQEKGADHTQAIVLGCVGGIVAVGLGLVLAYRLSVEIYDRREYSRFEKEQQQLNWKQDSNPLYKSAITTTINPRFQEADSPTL
Nature of the experiment: α4β7-K562 Cell Adhesion Assay (α4β7 Mediated Adhesion/MAdCAM-1). Format: cell-based. On the procedure:
α4β7-K562 Cell Adhesion Assay (α4β7 Mediated Adhesion/MAdCAM-1)
M2 anti-FLAG antibody coated 96-well plates (Sigma) were coated for 1 hour at 4° C. with 2-8 μl/well recombinant FLAG-hMAdCAM-1 contained in 100 μL of Dulbecco's PBS, pH 7.4, with 1% BSA and 1 mM Mn^2+ (PBS-BSA-Mn). Plates were washed once with PBS-BSA-Mn. Buffer was removed and compounds to be tested (50 μL) were added at 2 times concentration. Stably transfected K562 cells expressing human α4β7 integrin, (50 μL at 2×10^6/mL) that had been labeled with 100 μg/mL carboxymethyl fluorescein diacetate succinimidyl ester (CFDA-SE; Molecular Probes) for 15 min at 37° C. were added to each well and allowed to adhere for 1 h at room temperature. Plates were washed 4 times in PBS-BSA-Mn and then cells were lysed for 2 minutes by addition of 100 μL of PBS without Ca, Mg supplemented with 0.1 M NaOH. The plate was read on a 96-well fluorescent plate reader at 485 nm excitation and 530 nm emission.

The next experiment addresses α4β1 (Homo sapiens, UniProt P05556+P13612). The experiment in a line: Ramos Cell Adhesion Assay (α4β1 Mediated Adhesion/VCAM-1). The class given is cell-based. Details: Ramos Cell Adhesion Assay (α4β1 Mediated Adhesion/VCAM-1); endogenous in cells; host or cells: Ramos cells. On the procedure: Ramos Cell Adhesion Assay (α4β1 Mediated Adhesion/VCAM-1)
Immulon 96 well plates (Dynex) were coated with 100 μL recombinant hVCAM-1 at 4.0 μg/mL in 0.05 M NaCO3 buffer pH 9.0 overnight at 4° C. (R&D Systems). Plates were washed 3 times in PBS with 1% BSA and blocked for 1 h @ room temperature in this buffer. PBS was removed and compounds to be tested (50 μL) were added at 2× concentration. Ramos cells, (50 μL at 2×10^6/mL) labeled with 5 μM Calcein AM (Molecular Probes) for 1 h at 37° C., were added to each well and allowed to adhere for 1 h at room temperature. Plates were washed 3× in PBS+1% BSA and cells were lysed for 15 minutes in 100 μL of 1 M Tris pH 8.0 with 1% SDS. The plate was read at 485 nm excitation and 530 nm emission.

[1] abbreviates: K562 cells expressing human α4β7 adhering to FLAG-hMAdCAM-1, 1 mM Mn2+, read-out: α4β7, Madcam IC50.
The mark [2] stands for this setting: Ramos cells adhering to recombinant hVCAM-1, read-out: α4β1 IC50.

As a reminder, the IC50 is the concentration at which inhibition is half-maximal.

Where two headings read alike, the source gives them in different places. A value given as a limit tells only on which side of the number the result lay.

Chain of α4β1 (P05556 21-798, one chain of several): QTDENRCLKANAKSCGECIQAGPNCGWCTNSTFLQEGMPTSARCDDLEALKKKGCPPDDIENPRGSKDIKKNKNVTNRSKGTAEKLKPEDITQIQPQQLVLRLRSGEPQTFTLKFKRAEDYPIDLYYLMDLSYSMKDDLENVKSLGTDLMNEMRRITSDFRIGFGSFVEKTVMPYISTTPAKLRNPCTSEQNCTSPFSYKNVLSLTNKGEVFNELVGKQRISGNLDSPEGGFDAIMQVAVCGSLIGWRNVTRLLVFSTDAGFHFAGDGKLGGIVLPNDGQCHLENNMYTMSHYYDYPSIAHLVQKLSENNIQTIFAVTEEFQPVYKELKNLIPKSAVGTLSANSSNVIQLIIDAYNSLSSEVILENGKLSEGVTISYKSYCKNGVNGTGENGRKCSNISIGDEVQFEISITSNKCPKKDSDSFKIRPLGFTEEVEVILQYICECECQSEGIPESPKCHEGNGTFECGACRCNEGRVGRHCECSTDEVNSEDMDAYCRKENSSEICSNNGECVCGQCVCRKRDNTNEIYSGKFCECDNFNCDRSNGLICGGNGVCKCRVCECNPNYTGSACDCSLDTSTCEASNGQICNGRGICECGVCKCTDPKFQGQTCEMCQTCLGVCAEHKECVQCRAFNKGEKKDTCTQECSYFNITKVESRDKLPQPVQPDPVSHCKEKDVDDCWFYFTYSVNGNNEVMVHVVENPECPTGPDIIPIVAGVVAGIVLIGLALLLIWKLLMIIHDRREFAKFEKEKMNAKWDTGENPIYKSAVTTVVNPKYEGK

As to `CN(C)C(=O)Oc1ccc(C[C@H](NC(=O)C2CCCc3nnc(-c4ccccc4)n32)C(=O)O)cc1` (stereo partly drawn) [Cpd 1, 3-(4-Dimethylcarbamoyloxy-phenyl)-2-(S)-[(3-phenyl-5,6,7,8-tetrahydro-[1,2,4]triazolo[4,3-a]pyridine-5-carbonyl)-amino]-propionic acid], the values for the IC50 against human α4β7 integrin and against α4β1 were 1220 nM and 3.3 µM, respectively.

Take `CN(C)C(=O)Oc1ccc(C[C@H](NC(=O)C2CCCc3nnc(Cc4ccccc4)n32)C(=O)O)cc1` (stereo partly drawn) [Cpd 2, 2-(S)-[(3-Benzyl-5,6,7,8-tetrahydro-[1,2,4]triazolo[4,3-a]pyridine-5-carbonyl)-amino]-3-(4-dimethylcarbamoyloxy-phenyl)-propionic acid]: the half-inhibitory concentration (IC50) on human α4β7 integrin is 1660 nM; against α4β1 it was 5.09 µM. Regarding `CN(C)C(=O)Oc1ccc(C[C@H](NC(=O)[C@@H]2CCc3nnc(Cc4ccccc4)n32)C(=O)O)cc1` [Cpd 3, 2-(S)-[(3-Benzyl-6,7-dihydro-5H -pyrrolo[2,1-c][1,2,4]triazole-5-(S)-carbonyl)-amino]-3-(4-dimethylcarbamoyloxy-phenyl)-propionic acid], the values for the IC50 on human α4β7 integrin and against α4β1 were greater than 5000 nM and 4.15 µM, respectively. Regarding `O=C(Nc1ccc(C[C@H](NC(=O)[C@@H]2CCc3nnc(Cc4ccccc4)n32)C(=O)O)cc1)c1c(Cl)cccc1Cl` [Cpd 4, 2-(S)-[(3-Benzyl-6,7-dihydro-5H-pyrrolo[2,1-c][1,2,4]triazole-5-(S)-carbonyl)-amino]-3-[4-(2,6-dichloro-benzoylamino)-phenyl]-propionic acid], the figures for the half-maximal inhibitory concentration (IC50) on human α4β7 integrin (setting [1]) and at α4β1 (setting [2]) were 290 nM and 0.62 µM, respectively.

With `O=C(Nc1ccc(C[C@H](NC(=O)[C@@H]2CCc3nnc(Cc4ccccc4)n32)C(=O)O)cc1)c1cccc2ccccc12` [Cpd 5, 2-(S)-[(3-Benzyl-6,7-dihydro-5H-pyrrolo[2,1-c][1,2,4]triazole-5-(S)-carbonyl)-amino]-3-{4-[(naphthalene-1-carbonyl)-amino]-phenyl}-propionic acid], the IC50 on human α4β7 integrin (setting [1]) was greater than 5000 nM; on α4β1 (setting [2]) it was greater than 5 µM. As for `O=C(Nc1ccc(C[C@H](NC(=O)[C@@H]2CCc3nnc(Cc4ccccc4)n32)C(=O)O)cc1)c1ccc2ccccc2c1` [Cpd 6, 2-(S)-[(3-Benzyl-6,7-dihydro-5H-pyrrolo[2,1-c][1,2,4]triazole-5-(S)-carbonyl)-amino]-3-{4-[(naphthalene-2-carbonyl)-amino]-phenyl}-propionic acid], the results for the IC50 at human α4β7 integrin (setting [1]) and at α4β1 (setting [2]) were greater than 5000 nM and greater than 5 µM, respectively.

Consider `CCOc1ccc2ccccc2c1C(=O)Nc1ccc(C[C@H](NC(=O)[C@@H]2CCc3nnc(Cc4ccccc4)n32)C(=O)O)cc1` [Cpd 7, 2-(S)-[(3-Benzyl-6,7-dihydro-5H-pyrrolo[2,1-c][1,2,4]triazole-5-(S)-carbonyl)-amino]-3-{4-[(2-ethoxy-naphthalene-1-carbonyl)-amino]-phenyl}-propionic acid], for which the IC50 on human α4β7 integrin (setting [1]) was greater than 5000 nM; at α4β1 (setting [2]) it was greater than 5 µM. Consider `O=C(Nc1ccc(C[C@H](NC(=O)[C@@H]2CCc3nnc(Cc4ccccc4)n32)C(=O)O)cc1)c1cccc2c1-c1ccccc1C2=O` [Cpd 8, 2-(S)-[(3-Benzyl-6,7-dihydro-5H-pyrrolo[2,1-c][1,2,4]triazole-5-(S)-carbonyl)-amino]-3-{4-[(9-oxo-9H-fluorene-4-carbonyl)-amino]-phenyl}-propionic acid], for which the figures for the IC50 on human α4β7 integrin (setting [1]) and at α4β1 (setting [2]) were 350 nM and 1.56 µM, respectively. The like results for `O=C(Nc1ccc(C[C@H](NC(=O)[C@@H]2CCc3nnc(Cc4ccccc4)n32)C(=O)O)cc1)c1c(Cl)cncc1Cl` [Cpd 9, 2-(S)-[(3-Benzyl-6,7-dihydro-5H-pyrrolo[2,1-c][1,2,4]triazole-5-(S)-carbonyl)-amino]-3-{4-[(3,5-dichloro-pyridine-4-carbonyl)-amino]-phenyl}-propionic acid] were, in that order, 20 nM and 0.08 µM. For the compound `CCCc1nnc2n1[C@H](C(=O)N[C@@H](Cc1ccc(NC(=O)c3c(Cl)cccc3Cl)cc1)C(=O)O)CC2` [Cpd 10, 3-[4-(2,6-Dichloro-benzoylamino)-phenyl]-2-(S)-[(3-propyl-6,7-dihydro-5H-pyrrolo[2,1-c][1,2,4]triazole-5-(S)-carbonyl)-amino]-propionic acid], the IC50 was found to be 80 nM on human α4β7 integrin (setting [1]) and 1.04 µM on α4β1 (setting [2]). For `O=C(NCc1nnc2n1[C@H](C(=O)N[C@@H](Cc1ccc(NC(=O)c3c(Cl)cccc3Cl)cc1)C(=O)O)CC2)OCc1ccccc1` [Cpd 11, 2-(S)-{[3-(Benzyloxycarbonylamino-methyl)-6,7-dihydro-5H-pyrrolo[2,1-c][1,2,4]triazole-5-(S)-carbonyl]-amino}-3-[4-(2,6-dichloro-benzoylamino)-phenyl]-propionic acid], in that order: 550 nM and greater than 5 µM. As to `O=C(Nc1ccc(C[C@H](NC(=O)[C@@H]2CCc3nnc(Cc4ccsc4)n32)C(=O)O)cc1)c1c(Cl)cccc1Cl` [Cpd 12, 3-[4-(2,6-Dichloro-benzoylamino)-phenyl]-2-(S)-[(3-thiophen-3-ylmethyl-6,7-dihydro-5H-pyrrolo[2,1-c][1,2,4]triazole-5-(S)-carbonyl)-amino]-propionic acid], the results for the IC50 at human α4β7 integrin (setting [1]) and at α4β1 (setting [2]) were 120 nM and 0.38 µM, respectively. With `NCc1nnc2n1[C@H](C(=O)N[C@@H](Cc1ccc(NC(=O)c3c(Cl)cccc3Cl)cc1)C(=O)O)CC2` [Cpd 14, 2-(S)-[(3-Aminomethyl-6,7-dihydro-5H-pyrrolo[2,1-c][1,2,4]triazole-5-(S)-carbonyl)-amino]-3-[4-(2,6-dichloro-benzoylamino)-phenyl]-propionic acid], the IC50 at α4β1 (setting [2]) is greater than 5 µM.
